In ChEMBL document CHEMBL1142213, “Mechanism of antimalarial action of the synthetic trioxolane RBX11160 (OZ277)” (Antimicrob Agents Chemother, 2007):
Activity calls are given as the source filed them. The calls are words filed in the database; no cut-off is given here.

What was measured:
[1] = organism: Oryctolagus cuniculus; assay: Inhibition of rabbit muscle SERCA at 10 uM
[2] = Inhibition of Plasmodium falciparum ATP6 expressed in Xenopus laevis oocytes; format: cell-based; settings: oocyte
[3] = system: Oocyte; assay: Inhibition of Plasmodium falciparum ATP6 expressed in Xenopus laevis oocytes at 50 uM; format: cell-based
[4] = system: Oocyte; assay: Inhibition of Plasmodium falciparum HT expressed in Xenopus laevis oocytes assessed as D-[U-14C]glucose uptake at 50 uM; format: cell-based
[5] = system: Plasmodium falciparum; assay: Antimalarial activity against Plasmodium falciparum NF54 within 48 hrs; format: functional, organism-based; settings: NF54, 48 h
[6] = system: Oocyte; assay: Abrogation of Plasmodium falciparum ATP6 inhibition expressed in Xenopus laevis oocytes at 10 uM in presence of 100 uM desferioxamine; format: cell-based
[7] = organism: Oryctolagus cuniculus; assay: Inhibition of rabbit muscle SERCA at 100 uM
[8] = Inhibition of Plasmodium berghei SERCA

SMILES | inhibition [1] [%] | Ki [2] [µM] | Activity [3] | Activity [4] | IC50 [5] [nM] | Activity [6] | inhibition [7] [%] | Ki [8] [µM]
C/C=C(/C)C(=O)O[C@H]1C(C)=C2[C@H]([C@@H]1OC(=O)CCCCCCC)[C@@](C)(OC(C)=O)C[C@H](OC(=O)CCC)[C@@]1(O)[C@H]2OC(=O)[C@@]1(C)O | 75 |  |  |  |  |  |  | 
CC(C)(N)CNC(=O)C[C@H]1CC[C@@]2(CC1)OOC1(O2)C2CC3CC(C2)CC1C3 (some centres undefined) |  | 7.7 | Active | inactive | 1.6 | inactive | 50 | 
C[C@@H]1CC[C@H]2[C@@H](C)C(=O)O[C@@H]3O[C@@]4(C)CC[C@@H]1[C@]32OO4 [ARTEMISININ] |  | 0.079 |  |  |  |  |  | 6
